Values quoted from earlier work as cited in patent publication US20220257592A1, “METHODS OF TREATING CANCER” (HOFFMANN-LA ROCHE INC., priority 2019, published 2022).

Biological target: TrkC (Homo sapiens, UniProt Q16288)
Conditions: cited from earlier work

Chain of TrkC (Q16288 32-839): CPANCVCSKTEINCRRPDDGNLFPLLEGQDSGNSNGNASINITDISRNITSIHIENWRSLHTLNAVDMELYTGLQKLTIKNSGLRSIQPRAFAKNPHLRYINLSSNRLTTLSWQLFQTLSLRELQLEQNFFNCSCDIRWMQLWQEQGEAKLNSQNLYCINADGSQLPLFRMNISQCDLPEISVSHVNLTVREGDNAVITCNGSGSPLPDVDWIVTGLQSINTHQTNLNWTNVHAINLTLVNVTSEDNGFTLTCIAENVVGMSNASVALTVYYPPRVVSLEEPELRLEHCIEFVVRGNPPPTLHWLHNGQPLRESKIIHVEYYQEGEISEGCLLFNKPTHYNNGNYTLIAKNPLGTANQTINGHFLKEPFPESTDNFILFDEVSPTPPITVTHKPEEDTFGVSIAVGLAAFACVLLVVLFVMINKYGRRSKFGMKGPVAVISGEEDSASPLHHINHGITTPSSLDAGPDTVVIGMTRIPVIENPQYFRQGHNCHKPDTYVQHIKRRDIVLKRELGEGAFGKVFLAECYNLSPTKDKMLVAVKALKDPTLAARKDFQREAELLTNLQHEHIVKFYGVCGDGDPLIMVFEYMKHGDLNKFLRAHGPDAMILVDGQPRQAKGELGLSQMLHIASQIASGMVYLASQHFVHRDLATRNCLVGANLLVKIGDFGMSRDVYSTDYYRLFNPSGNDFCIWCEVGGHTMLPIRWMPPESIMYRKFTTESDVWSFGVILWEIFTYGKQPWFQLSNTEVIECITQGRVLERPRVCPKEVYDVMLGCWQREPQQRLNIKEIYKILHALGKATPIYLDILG

CN1CCN(c2ccc(C(=O)Nc3n[nH]c4ccc(Cc5cc(F)cc(F)c5)cc34)c(NC3CCOCC3)c2)CC1 [Entrectinib, N-[5-(3,5-difluorobenzyl)-1H-indazol-3-yl]-4-(4-methyl-piperazin-1-yl)-2-(tetrahydro-pyran-4-ylamino)-benzamide]
inhibition of TrkC tyrosine kinase: potent inhibitor
